The source of these data is patent publication US11883435B2, “Compositions and methods for treating a clinical condition through the use of hematopoietic stem cells” (Indiana University Research and Technology Corporation, priority 2017, dated 2024).

The subject of one assay is mouse bone marrow HSCs. Description: Number of mouse bone marrow HSCs collected and processed with antioxidants or epigenetic inhibitors (flow cytometry). In kind it is cell-based. The note with it: collected in ambient air.
The subject of the next assay is mouse bone marrow HSC. The note with it: ambient air (about 21% O2); cited from earlier work.
A further assay deals with human cord blood HSC. The note with it: ambient air (about 21% O2); cited from earlier work.

In the case of `O=C1O[C@H]([C@@H](O)CO)C(O)=C1OP(=O)(O)O` [AAP, ascorbic acid 2-phosphate], the “increase in numbers of HSC” value with mouse bone marrow HSCs (AAP alone (0.22 mM)) is recorded as “not AAP alone, significantly increased”.
For `CC(=O)N[C@@H](CS)C(=O)O` [NAC, N-Acetyl-Cysteine], in the assay with mouse bone marrow HSCs (1 mM NAC), the “change in numbers of collected HSCs” value was “no significant change”. Also, the “increase in numbers of collected HSCs” value in the assay on mouse bone marrow HSCs (higher dose of NAC (3 mM)) is listed as “no increase”.
Consider cyclosporine A, for which the “numbers of HSC” value with mouse bone marrow HSC and in the assay on human cord blood HSC was “increased numbers of HSC” each time.
